Tests used:
[1] = target: Aβ40 monomers (Homo sapiens, UniProt P05067); experiment: Photo-oxidation of Aβ40 monomers (DNPH dot blot, RP-HPLC, MS, amino acid analysis); format: biochemical; conditions: 4 hour irradiation
Protocol: To evaluate the potency of OPE to selectively photo-oxidize Aβ40 fibrils over the monomeric counterpart, the oxidation state of both Aβ40 fibrils and monomers were characterized and were compared to MB. The carbonyl content of the protein was monitored by DNPH dot blot, which increases as a result of histidine photooxidation.^20
DNPH dot blot was carried out on Aβ40 fibrils and monomers incubated in the dark or under irradiation between 0 to 6 hours (FIGS. 9A and 9B). […] Slightly higher carbonyl content in Aβ fibrils at time 0 h in the presence of MB could be due to short light exposure during sample preparation causing MB to photosensitize the oxidation of Aβ fibrils.
To confirm this observation, Aβ40 monomers were analyzed by reverse phase HPLC (RP-HPLC), mass spectrometry (MS), and amino acid analysis (FIGS. 10A and B), before and after irradiation in the presence of OPE1− and MB.

[2] = target: T1, Aβ40 fibrils (Homo sapiens, UniProt P05067); experiment: Effect of oxidation on Aβ40 fibril morphology and secondary structure (TEM, CD); format: biochemical; conditions: irradiated with photosensitizer
T1 construct: mixed with Aβ40 fibrils (5 μM) incubated in Tris pH 8.0 (A) or PB pH 7.4 (B)
T1 sequence (P05067 672-711 limits assumed): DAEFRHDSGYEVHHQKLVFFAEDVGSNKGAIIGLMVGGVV

[3] = target: T1, Aβ40 fibrils; experiment: Fluorescence sensing of Aβ40 fibrils over monomers (ADF, LOD); format: binding; conditions: 5 to 1 protein to sensor molar ratio
Protocol: Quantitative assessment of OPE sensor performance towards A1340 fibrils at a 5 to 1 protein to sensor molar ratio was analyzed by calculating an amyloid detector factor using the equation shown in FIG. 13, where F(dye-in-buffer), F(dye+fibrils) and F(dye+monomers) are the integrated emission intensities for sensor alone, sensor in the presence of fibrils, and sensor in the presence of monomers, respectively. Using this equation, positive ADF values indicate selective sensing of fibrils over monomers, while negative ADF values indicate selective sensing of monomers. ADF values close to zero indicate no selective sensing.

[4] = target: T2, Aβ42 peptide (Homo sapiens, UniProt P05067); experiment: Fluorescence spectra with unincubated (oligomeric) and incubated (fibrillar) Aβ42 peptide; format: binding; conditions: ThT 20 μM, OPE 1 μM, Aβ42 5 μM
T2 construct: in the presence of unincubated (oligomeric) and incubated (fibrillar) Aβ42 peptide (5 μM)
T2 sequence (P05067 672-713 limits assumed): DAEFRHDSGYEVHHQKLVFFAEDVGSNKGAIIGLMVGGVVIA

[5] = test system: α-synuclein; experiment: Excitation and emission spectra with α-synuclein isoforms; format: binding; conditions: 6 days of incubation
[6] = target: T1, Aβ40 fibrils; experiment: Fluorescence sensing of Aβ40 fibrils over monomers (ADF, LOD); format: binding
[7] = Aβ40 fibrils produced in pH 7.4 PB
[8] = Aβ40 fibrils produced in pH 8.0 Tris

Chain of Aβ40 monomers (P05067 672-711 limits assumed): as the sequence (P05067 672-711 limits assumed) above

| Structure (SMILES) | changes of Aβ40 monomers after irradiation [1] | Aβ40 fibril morphology after irradiation (TEM) [2] | ADF (Amyloid Detection Factor), Aβ40 in PB [3, 7] | ADF (Amyloid Detection Factor), Aβ40 in Tris [3, 8] | fluorescence increase with fibrillar (incubated) Aβ42 [4] | fluorescence increase with oligomeric (unincubated, prefibrillar) Aβ42 [4] | detection of prefibrillar α-synuclein aggregates [5] | LOD (Limit of Detection), Aβ40 in PB [6, 7] | LOD (Limit of Detection), Aβ40 in Tris [6, 8] |
| --- | --- | --- | --- | --- | --- | --- | --- | --- | --- |
| CN(C)c1ccc2nc3ccc(=[N+](C)C)cc-3sc2c1 [MB, methylene blue, reference compound] | become more hydrophilic, present higher m/z ratio, and have a lower histidine content | fibrils dissociated and broke into shorter structures | – | – | – | – | – | – | – |
| Cc1ccc2c(c1)sc(-c1ccc(N(C)C)cc1)[n+]2C.[Cl-] [ThT, thioflavin T, reference compound] | – | – | 0.23 +/− 0.03 | 0.53 +/− 0.1 | large fluorescence increases | small fluorescence increases | only able to detect A53T aggregates after 6 days of incubation | 0.69 ± 0.05 µM | 0.65 ± 0.05 µM |
